Series [1] has as its system CMV. Nature of the series: Exposure–response analysis of efficacy, key secondary endpoint: CMV viremia clearance and symptom control at week 8 maintained through week 16 (SOLSTICE). Format: in vivo, human. The method, then: The exposure–response analyses for maribavir were based on data collected from transplant recipients with CMV infections that were refractory to treatment with ganciclovir, valganciclovir, foscarnet, or cidofovir in the phase 3 SOLSTICE study (ClinicalTrials.gov: NCT02931539). SOLSTICE was a multicenter, open-label, active-controlled study in which patients were randomized 2:1 to receive maribavir 400 mg BID or IAT for 8 weeks, with 12 weeks of follow-up. The primary endpoint was confirmed CMV clearance at the end of week 8, and the key secondary endpoint was achievement of CMV clearance and symptom control at the end of week 8, maintained through week 16. TE CMV mutation conferring resistance to maribavir was assessed as an exploratory endpoint. Full details of the SOLSTICE study have been published previously.
Posterior Bayes parameters of the final PopPK model were used to derive rich concentration–time profiles for maribavir. Actual dosing history and factors affecting the PK of maribavir (i.e., body weight and time-varying presence of strong CYP3A4 inhibitors or strong CYP3A4 inducers) were considered in the predictions.
Data set preparation, exploration, visualization of the data and exposure-response analyses were performed using R® (version 4.0.5 for efficacy and resistance analyses; version 4.0.2 for safety analysis) with comprehensive R® archive network (CRAN) and Certara Strategic Consulting (CSC) package. Firth correction on logistic regression was done based on library “logistf”. Logistic regressions with log-linear exposure effect or Emax exposure effect were performed using NONMEM Version VII (version 7.4).
Maribavir exposure parameters (AUCss, Cmax.ss, and Ctrough.ss) were combined with the primary and key secondary efficacy endpoints, and with TE CMV mutations conferring resistance to maribavir from the SOLSTICE study. The following covariates were included in the dataset to identify potential influencing factors: transplant type (HCT, SOT); CMV DNA level (high, intermediate, low) at baseline; symptom status (symptomatic or asymptomatic) at baseline; CMV resistant at baseline (yes, no); donor (D) and recipient (R) CMV serostatus (D+/R−, D+/R+, or D−/R+, D−/R−); antilymphocyte use (yes, no); immune function status as measured by total white blood cells from hematology panel at baseline; CMV-specific CD4 + CD69 + and CD8 + CD69 + T cells from immune function assay as continuous variables at baseline; enrolling region (North America, Europe, Asia Pacific); prior use of CMV prophylaxis (yes, no); age (as a continuous parameter) and age group (12 to < 18 years; 18 to < 45 years; 45 to < 65 years; ≥65 years); sex (male, female); race and ethnicity; TE CMV maribavir-resistant mutations (yes, no); and temporal identification of maribavir resistance (no, on maribavir treatment, post-maribavir treatment).
The exposure–response analyses were performed using a logistic regression model whereby a response can be defined as 0 (non-responder) or 1 (responder). Logistic regression analyses were performed to explore potential associations with maribavir exposure and the probability of response. The logistic regression model had the following form, assuming that maribavir exposure is included in the model:1 [drawing 1]
Pi is the probability of the event in the ith patient and α is the baseline Ln (odds) of the event. The model assumes a linear exposure effect on logit scale, with the parameter α representing the intercept, while β1 represents the slope linking the exposure parameter (X1) of maribavir (AUCss, Cmax.ss, and Ctrough.ss) to the response. The statistical significance of α and β1 was tested in the logistic regression models with a p value of < 0.05, and 95% CIs were provided for each parameter. The odds ratio (OR) for β1 was derived for a specific unit increment of the PK parameter. […]

Details of series [2]: method as in PMID 18316526. Conditions: concomitant ketoconazole; cited from earlier work.
Where [3] appears, read: key secondary endpoint, reference <0.5%.

Structures are written as SMILES.

Regarding `CC(C)Nc1nc2cc(Cl)c(Cl)cc2n1[C@H]1O[C@@H](CO)[C@H](O)[C@@H]1O` [maribavir], the “Proportion of responders, key secondary endpoint” value in series [1] (1st quartile of AUCss) is on record as 31%; in series [1] (2nd quartile of AUCss) it was 25%; in series [1] (3rd quartile of AUCss, n = 9), 16%; in series [1] (4th quartile of AUCss, n = 3) it was 5%. Moreover, the “Probability of being a responder, key secondary endpoint” value in series [1] (baseline CD8 + CD69 + cell count ≥ 2%, otherwise reference, AUCss 200 µg∙h/mL) came out at 77.9%; in series [1] (developed TE CMV maribavir-resistant mutation, CD8 + CD69 + < 0.5%, low CMV DNA, no prior prophylaxis, AUCss 200 µg∙h/mL) it was 2.5%; in series [1] (intermediate/high CMV DNA levels, otherwise reference, AUCss 200 µg∙h/mL), 19.7%; in series [1] (prior use of CMV prophylaxis, otherwise reference, AUCss 200 µg·h/mL), 23.0%; in series [1] (reference: no TE mutation, CD8 + CD69 + < 0.5%, low CMV DNA, no prior prophylaxis, AUCss 200 µg∙h/mL), 40.3%. Moreover, the “Patients meeting key secondary endpoint (clearance and symptom control at week 8, maintained through week 16)” value in series [1] (exposure–response population n = 231, 400 mg BID, 44 patients) amounted to 19%. In series [1] (key secondary endpoint), the “Logistic regression Estimate (SE): Intercept” value is 0.814 (0.543). Moreover, the “OR (95% CI): prior use of CMV prophylaxis” value in series [1] (key secondary endpoint) is listed as 0.441 (0.191, 0.969). For the same compound, in series [1] (key secondary endpoint), the “OR (95% CI): treatment-emergent CMV mutation conferring resistance to maribavir” value is 0.0381 (2.97×10^–4, 0.284). The “OR (95% CI): AUCss of maribavir” value in series [1] (key secondary endpoint, increment of 50 µg·h/mL) is listed as 0.740 (0.611, 0.870). The “Logistic regression Estimate (SE): baseline CD8+CD69+ cell count ≥2%” value in series [1] (setting [3]) is 1.65 (0.552). The “OR (95% CI): baseline CD8+CD69+ cell count not reported” value in series [1] (setting [3]) is 0.899 (0.326, 2.34). Moreover, in series [1] (setting [3]), the “OR (95% CI): baseline CD8+CD69+ cell count ≥0.5% to <2%” value was 0.594 (0.159, 1.88). Besides, the “OR (95% CI): baseline CD8+CD69+ cell count ≥2%” value in series [1] (setting [3]) is reported as 5.18 (1.82, 15.9). Also, the “OR (95% CI): baseline CMV DNA level intermediate/high” value in series [1] (key secondary endpoint, reference low) is recorded as 0.363 (0.129, 0.910). The “Relationship between maribavir exposure (AUCss) and probability of response for the key secondary endpoint” value in series [1] (p = 0.001) is reported as “negative relationship”. The “Increase in maribavir AUC0-∞” value in series [2] is given as 53%. Also, in series [2], the “Increase in maribavir Cmax” value is listed as 10%.
